Test system: B16–F10 cells
Test: RNaseq gene expression profiling;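 as to logFC Ak4: Hybrid compounds tested at 10 µM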;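 as to logFC Cck: Hybrid compounds tested at 10 µM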;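 as to logFC Cited1: Hybrid compounds tested at 10 µM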;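 as to logFC Gpd1: Hybrid compounds tested at 10 µM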;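 as to logFC Mgll: Hybrid compounds tested at 10 µM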;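 as to logFC Nr4a3: Hybrid compounds tested at 10 µM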;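 as to logFC Rnf145: Hybrid compounds tested at 10 µM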;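 as to logFC Rpia: Hybrid compounds tested at 10 µM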;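 as to logFC Sema7a: Hybrid compounds tested at 10 µM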;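 as to logFC Snrpd1: Hybrid compounds tested at 10 µM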;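 as to logFC Spc24: Hybrid compounds tested at 10 µM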;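 as to logFC Tk1: Hybrid compounds tested at 10 µM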;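 as to logFC Tonsl: Hybrid compounds tested at 10 µM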;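 as to logFC Tpi1: Hybrid compounds tested at 10 µM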;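 as to logFC Ugdh: Hybrid compounds tested at 10 µM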
Format: cell-based, mouse
Method: AC-340 superinduced CYP24A1 expression in all cell lines tested, and ZG-126 appeared to be a hyperagonist in SK-MEL-28 cells. […] AC-340 treatment produced 3 times more differentially expressed genes (DEGs) than AM-193, with ZG-126 producing an intermediate number (Figure A). […] The varying effects of each treatment on the numbers of regulated genes and the fold changes observed are reflected in plots of log-fold changes and volcano plots (Figure S3B).
A quality control was performed before sequencing in paired-end at 50 M reads by Illumina NovaSeq 6000 S4 PE100. After sequencing, the FASTQ files were sent to us and all downstream analysis were performed on Galaxy (Galaxy (usegalaxy.org)). First, trimmomatic tool was used to remove the adapters from the reads. Then, using the alignment tool, HISAT2, the reads were mapped to the mouse genome. In the next step, the counted reads were annotated and finally the list of differentially expressed genes (DEGs) for each treatment was obtained using the preinstalled R package called Limma.

SMILES: CCC(CC)(c1ccc(OCCCCCC(=O)NO)cc1)c1ccc(OCC(O)C(C)(C)C)c(C)n1 (stereo not shown) [AM-193]
- logFC Rnf145 (RNAseq, gene Rnf145, AM193-significant genes): -0.7842
- logFC Rpia (RNAseq, gene Rpia, AM193-significant genes): -0.7096
- logFC Samd1 (RNAseq, gene Samd1, AM193-significant genes): -0.798
- logFC Selenbp1 (RNAseq, gene Selenbp1, AM193-significant genes): -1.012
- logFC Sema7a (RNAseq, gene Sema7a, AM193-significant genes): -0.8174
- logFC Sfxn2 (RNAseq, gene Sfxn2, AM193-significant genes): -0.9624
- logFC Sigmar1 (RNAseq, gene Sigmar1, AM193-significant genes): -0.7437
- logFC Sik1 (RNAseq, gene Sik1, AM193-significant genes): -0.7218
- logFC Ska3 (RNAseq, gene Ska3, AM193-significant genes): -0.7116
- logFC Slc2a1 (RNAseq, gene Slc2a1, AM193-significant genes): -1.04
- logFC Slc37a4 (RNAseq, gene Slc37a4, AM193-significant genes): -0.9222
- logFC Slc39a10 (RNAseq, gene Slc39a10, AM193-significant genes): -0.7848
- logFC Snrpa1 (RNAseq, gene Snrpa1, AM193-significant genes): -1.002
- logFC Snrpd1 (RNAseq, gene Snrpd1, AM193-significant genes): -0.7702
- logFC Spc24 (RNAseq, gene Spc24, AM193-significant genes): -0.7364
- logFC Srm (RNAseq, gene Srm, AM193-significant genes): -1.055
- logFC Tarbp1 (RNAseq, gene Tarbp1, AM193-significant genes): -0.7191
- logFC Tbl2 (RNAseq, gene Tbl2, AM193-significant genes): -0.8635
- logFC Tet1 (RNAseq, gene Tet1, AM193-significant genes): -0.8944
- logFC Tfap4 (RNAseq, gene Tfap4, AM193-significant genes): -1.016
- logFC Tinagl1 (RNAseq, gene Tinagl1, AM193-significant genes): -0.9151
- logFC Tk1 (RNAseq, gene Tk1, AM193-significant genes): -0.987
- logFC Tonsl (RNAseq, gene Tonsl, AM193-significant genes): -0.711
- logFC Tpi1 (RNAseq, gene Tpi1, AM193-significant genes): -0.895
- logFC Trip13 (RNAseq, gene Trip13, AM193-significant genes): -0.8647
- logFC Trmt61a (RNAseq, gene Trmt61a, AM193-significant genes): -0.7832
- logFC Trpm1 (RNAseq, gene Trpm1, AM193-significant genes): -0.743
- logFC Ttk (RNAseq, gene Ttk, AM193-significant genes): -0.8273
- logFC Uba7 (RNAseq, gene Uba7, AM193-significant genes): -0.9636
- logFC Ugdh (RNAseq, gene Ugdh, AM193-significant genes): -0.8794
- logFC Ugp2 (RNAseq, gene Ugp2, AM193-significant genes): -0.7144
- logFC Uhrf1 (RNAseq, gene Uhrf1, AM193-significant genes): -0.8121
- logFC Xrcc3 (RNAseq, gene Xrcc3, AM193-significant genes): -0.7656
- logFC Abca12 (RNaseq, B16–F10 cells, gene Abca12 (ATP-binding cassette, sub-family A (ABC1), member 12), sheet AM193-significant genes): -1.21
- logFC Ak4 (RNaseq, B16–F10 cells, gene Ak4 (adenylate kinase 4), sheet AM193-significant genes): -1.909
- logFC Bnip3 (RNaseq, B16–F10 cells, gene Bnip3 (BCL2/adenovirus E1B interacting protein 3), sheet AM193-significant genes): -1.2222
- logFC Cck (RNaseq, B16–F10 cells, gene Cck (cholecystokinin), sheet AM193-significant genes): -1.792
- logFC Cited1 (RNaseq, B16–F10 cells, gene Cited1 (Cbp/p300-interacting transactivator with Glu/Asp-rich carboxy-terminal domain 1), sheet AM193-significant genes): -1.397
- logFC Dna2 (RNaseq, B16–F10 cells, gene Dna2 (DNA replication helicase/nuclease 2), sheet AM193-significant genes): -1.157
- logFC Gpd1 (RNaseq, B16–F10 cells, gene Gpd1 (glycerol-3-phosphate dehydrogenase 1 (soluble)), sheet AM193-significant genes): -1.351
- logFC H2bc12 (RNaseq, B16–F10 cells, gene H2bc12 (H2B clustered histone 12), sheet AM193-significant genes): -1.307
- logFC H3c8 (RNaseq, B16–F10 cells, gene H3c8 (H3 clustered histone 8), sheet AM193-significant genes): -1.15
- logFC Hk2 (RNaseq, B16–F10 cells, gene Hk2 (hexokinase 2), sheet AM193-significant genes): -1.284
- logFC Kit (RNaseq, B16–F10 cells, gene Kit (KIT proto-oncogene receptor tyrosine kinase), sheet AM193-significant genes): -2.0666
- logFC Lpar5 (RNaseq, B16–F10 cells, gene Lpar5 (lysophosphatidic acid receptor 5), sheet AM193-significant genes): -1.721
- logFC Megf6 (RNaseq, B16–F10 cells, gene Megf6 (multiple EGF-like-domains 6), sheet AM193-significant genes): -1.186
- logFC Mgll (RNaseq, B16–F10 cells, gene Mgll (monoglyceride lipase), sheet AM193-significant genes): -1.2265
- logFC Mknk2 (RNaseq, B16–F10 cells, gene Mknk2 (MAP kinase-interacting serine/threonine kinase 2), sheet AM193-significant genes): -1.156
- logFC Nr4a3 (RNaseq, B16–F10 cells, gene Nr4a3 (nuclear receptor subfamily 4, group A, member 3), sheet AM193-significant genes): -2.364
- logFC Oas2 (RNaseq, B16–F10 cells, gene Oas2 (2'-5' oligoadenylate synthetase 2), sheet AM193-significant genes): -1.532
- logFC Pafah1b3 (RNaseq, B16–F10 cells, gene Pafah1b3 (platelet-activating factor acetylhydrolase, isoform 1b, subunit 3), sheet AM193-significant genes): -1.354
- logFC Pdk1 (RNaseq, B16–F10 cells, gene Pdk1 (pyruvate dehydrogenase kinase, isoenzyme 1), sheet AM193-significant genes): -1.253
- logFC Sapcd2 (RNaseq, B16–F10 cells, gene Sapcd2 (suppressor APC domain containing 2), sheet AM193-significant genes): -1.167
- logFC Slc16a3 (RNaseq, B16–F10 cells, gene Slc16a3 (solute carrier family 16 (monocarboxylic acid transporters), member 3), sheet AM193-significant genes): -1.321
- logFC (gene 1700019D03Rik): 1.314
- logFC (gene 4930455G09Rik): 1.641
- logFC (gene Abca8b): 1.273
- logFC (gene Abcd2): 4.745
- logFC (gene Adamts7): 1.528
- logFC (gene Adamtsl5): 1.436
- logFC (gene Adssl1): 1.51
- logFC (gene Afap1l2): 1.64
- logFC (gene Akna): 1.375
- logFC (gene Aldh1l2): 1.268
- logFC (gene Ankrd23): 1.409
- logFC (gene Asns): 1.391
- logFC (gene Atp1b2): 1.2305
- logFC (gene Atp2b4): 1.278
- logFC (gene Atp8b3): 1.445
- logFC (gene Bmf): 1.318
- logFC (gene C1s1): 1.363
- logFC (gene Cacng7): 1.328
- logFC (gene Car11): 1.215
- logFC (gene Cebpb): 1.421
- logFC (gene Chn1): 1.21
- logFC (gene Cnn2): 1.571
- logFC (gene Col20a1): 1.535
- logFC (gene Csdc2): 1.317
- logFC (gene Cth): 1.456
- logFC (gene Ctsf): 1.525
- logFC (gene Cyb5r2): 1.681
- logFC (gene Dagla): 1.633
- logFC (gene Dbp): 1.36
- logFC (gene Ddr2): 1.2413
- logFC (gene Dgat1): 1.203
- logFC (gene Dgka): 1.571
- logFC (gene Dglucy): 1.251
- logFC (gene Eef2k): 1.203
- logFC (gene Efhd1): 5.014
- logFC (gene Ehd3): 1.292
- logFC (gene Fam83f): 1.352
- logFC (gene Fam178b): 1.456
- logFC (gene Fbxo2): 1.302
- logFC (gene Fbxo41): 1.469
- logFC (gene Fry): 1.598
- logFC (gene Fstl1): 1.467
- logFC (gene Gjc3): 1.602
- logFC (gene Gli1): 1.6149
- logFC (gene Glipr2): 1.645
- logFC (gene Gm19705): 1.68
- logFC (gene Gpr158): 1.296
- logFC (gene Gpr162): 1.524
- logFC (gene Gstm7): 1.44
- logFC (gene Heg1): 1.713
- logFC (gene Hid1): 1.246
- logFC (gene Hoga1): 1.608
- logFC (gene Hrc): 1.3608
- logFC (gene Id3): 1.638
- logFC (gene Inpp5e): 1.325
- logFC (gene Itga8): 1.267
- logFC (gene Jam2): 1.325
- logFC (gene Kif9): 1.315
- logFC (gene Lrrc75b): 1.346
- logFC (gene Lrtm2): 4.986
- logFC (gene Ltbp4): 1.39
- logFC (gene Mettl27): 1.2162
- logFC (gene Mmp11): 1.398
- logFC (gene Mmp28): 4.741
- logFC (gene Mxd4): 1.4725
- logFC (gene Nccrp1): 5.249
- logFC (gene Neurl3): 1.34
- logFC (gene Notch1): 1.541
- logFC (gene Notch3): 1.442
- logFC (gene Nova2): 1.445
- logFC (gene Nupr1): 1.537
- logFC (gene Nwd1): 1.316
- logFC (gene Pcdh1): 1.75
- logFC (gene Pck2): 1.456
- logFC (gene Pdlim2): 1.539
- logFC (gene Phlda3): 1.237
- logFC (gene Phyhd1): 1.588
- logFC (gene Pierce2): 1.323
- logFC (gene Plk2): 1.532
- logFC (gene Prelp): 5.529
- logFC (gene Prox1): 1.361
- logFC (gene Ptges): 4.4154
- logFC (gene Reck): 1.669
- logFC (gene Rom1): 1.351
- logFC (gene Scamp1): 1.346
- logFC (gene Scube3): 1.291
- logFC (gene Serpinb9b): 1.695
- logFC (gene Shank1): 1.222
- logFC (gene Slc17a7): 1.733
- logFC (gene Slc25a35): 1.406
- logFC (gene Slc25a42): 1.347
- logFC (gene Slc43a2): 1.207
- logFC (gene Sparc): 1.263
- logFC (gene Spn): 1.262
- logFC (gene Sync): 1.481
- logFC (gene Syt7): 1.364
- logFC (gene Trnp1): 1.3245
- logFC (gene Vdr): 5.618
- logFC (gene Wnt10a): 4.9613
- logFC (gene Zfr2): 1.286

Source: publication PMC12517324, “Hyperagonism of a Vitamin D Receptor Agonist/Histone Deacetylase Inhibitor Hybrid Molecule” (Journal of Medicinal Chemistry, 2025)
